The supplement of paper PMC13380429

Experiments:
Settings in all cases: 72 h
Caco-2 [1] = test: relative viability EC50 (midpoint between 100% and the lowest measured viability); higher = less toxic
Vero E6 [2] = test: as above
HepG2 [3] = test: as above
Calu-3 [4] = test: as above
Caco-2 [5] = test: cell viability relative to DMSO; higher = less toxic
Vero E6 [6] = test: as above
HepG2 [7] = test: as above
Calu-3 [8] = test: as above
Caco-2 [9] = test: drug sensitivity score (DSS) for viability; higher = more toxic; extreme values may be limits of the assay
Vero E6 [10] = test: as above
HepG2 [11] = test: as above
Calu-3 [12] = test: as above
U2OS [13] = test: relative viability EC50 (midpoint between 100% and the lowest measured viability); higher = less toxic
U2OS [14] = test: cell viability relative to DMSO; higher = less toxic
U2OS [15] = test: drug sensitivity score (DSS) for viability; higher = more toxic; extreme values may be limits of the assay

SMILES | relative viability EC50 (Caco-2 [1]) [µM] | relative viability EC50 (Vero E6 [2]) [µM] | relative viability EC50 (HepG2 [3]) [µM] | relative viability EC50 (Calu-3 [4]) [µM] | cell viability (Caco-2 [5]; 1 nM) [%] | cell viability (Caco-2 [5]; 10 nM) [%] | cell viability (Caco-2 [5]; 100 nM) [%] | cell viability (Caco-2 [5]; 1000 nM) [%] | cell viability (Caco-2 [5]; 10000 nM) [%] | cell viability (Vero E6 [6]; 1 nM) [%] | cell viability (Vero E6 [6]; 10 nM) [%] | cell viability (Vero E6 [6]; 100 nM) [%] | cell viability (Vero E6 [6]; 1000 nM) [%] | cell viability (Vero E6 [6]; 10000 nM) [%] | cell viability (HepG2 [7]; 1 nM) [%] | cell viability (HepG2 [7]; 10 nM) [%] | cell viability (HepG2 [7]; 100 nM) [%] | cell viability (HepG2 [7]; 1000 nM) [%] | cell viability (HepG2 [7]; 10000 nM) [%] | cell viability (Calu-3 [8]; 1 nM) [%] | cell viability (Calu-3 [8]; 10 nM) [%] | cell viability (Calu-3 [8]; 100 nM) [%] | cell viability (Calu-3 [8]; 1000 nM) [%] | cell viability (Calu-3 [8]; 10000 nM) [%] | drug sensitivity score (Caco-2 [9]) | drug sensitivity score (Vero E6 [10]) | drug sensitivity score (HepG2 [11]) | drug sensitivity score (Calu-3 [12]) | relative viability EC50 (U2OS [13]) [µM] | cell viability (U2OS [14]; 1 nM) [%] | cell viability (U2OS [14]; 10 nM) [%] | cell viability (U2OS [14]; 100 nM) [%] | cell viability (U2OS [14]; 1000 nM) [%] | cell viability (U2OS [14]; 10000 nM) [%] | drug sensitivity score (U2OS [15])
O=C(O)C1=CCNCC1 [isoguvacine] | > 10 | > 10 | > 10 | > 10 | 106 | 99.5 | 108 | 106 | 98.7 | 101 | 103 | 100 | 99.4 | 98.2 | 91 | 98.5 | 91.9 | 96.1 | 95 | 105 | 99.1 | 104 | 94.5 | 94.4 | 0 | 0 | 0 | 0 | – | – | – | – | – | – | –
CN(C)CCOC(c1ccc(Cl)cc1)c1ccccn1 (stereo not given) [carbinoxamine] | > 10 | > 10 | > 10 | > 10 | 110 | 98.7 | 97.2 | 99.5 | 95.3 | 94.5 | 102 | 99.4 | 106 | 106 | 99.9 | 95.8 | 102 | 104 | 99.6 | 108 | 110 | 101 | 97.4 | 103 | 0 | 0 | 0 | 0 | – | – | – | – | – | – | –
CC(=O)c1cc2c(o1)C(=O)c1ccccc1C2=O [napabucasin] | 1.13 | 2.24 | 0.291 | – | 103 | 98.5 | 95.3 | 55.8 | 0.5 | 88.7 | 99.5 | 89.6 | 88.8 | -0.4 | 102 | 109 | 97.1 | -0.9 | -0.3 | 124 | 109 | 101 | 106 | 56.4 | 10.7 | 7.4 | 18.4 | 1.8 | 3.07 | 102 | 98.5 | 102 | 98.9 | -0.4 | 5.8
O=C(O)C(Cl)Cl [dichloroacetate] | > 10 | > 10 | > 10 | – | 102 | 106 | 116 | 97.3 | 98.6 | 104 | 96.3 | 96.1 | 104 | 96 | 111 | 104 | 110 | 93.2 | 102 | – | – | – | – | – | 0 | 0 | 0 | – | > 10 | 104 | 96.2 | 97.4 | 96 | 99.6 | 0
CCCCCCCCCCC(C)(C)C(=O)Nc1c(OC)cc(OC)cc1OC [CI-976] | > 10 | – | > 10 | > 10 | 98.7 | 97.9 | 91.7 | 99.5 | 90.2 | – | – | – | – | – | 105 | 103 | 103 | 102 | 96.5 | 101 | 97.6 | 95.5 | 112 | 99.3 | 0 | – | 0 | 0 | > 10 | 100 | 101 | 98.9 | 103 | 97.9 | 0
NS(=O)(=O)c1ccc(-n2nc(C(F)(F)F)cc2-c2ccc(Cl)cc2)cc1 [SC-236] | > 10 | > 10 | > 10 | – | 102 | 92 | 86.3 | 96.6 | 82.8 | 94.7 | 93.3 | 91.6 | 91.6 | 100 | 111 | 99.5 | 101 | 101 | 103 | – | – | – | – | – | 0.7 | 0 | 0 | – | > 10 | 99.1 | 96 | 98.1 | 102 | 103 | 0
CC(=O)O[C@H]1C[C@@H]2CC[C@@H]3[C@H](CC[C@@]4(C)[C@H]3C[C@H]([N+]3(C)CCCCC3)[C@@H]4OC(C)=O)[C@@]2(C)C[C@@H]1[N+]1(C)CCCCC1 [pancuronium] | > 10 | > 10 | > 10 | > 10 | 106 | 99.9 | 97.8 | 97.5 | 94.1 | 102 | 102 | 106 | 101 | 97.9 | 98.2 | 103 | 101 | 106 | 102 | 114 | 101 | 103 | 104 | 99.5 | 0 | 0 | 0 | 0 | – | – | – | – | – | – | –
CCOc1cc2ncc(C#N)c(Nc3ccc(OCc4cccc(F)c4)c(Cl)c3)c2cc1NC(=O)/C=C/CN(C)C [HKI-357] | 1.63 | 1.37 | 2.41 | 0.373 | 94.4 | 95.3 | 88.1 | 77.9 | 6 | 99.7 | 106 | 92.6 | 65.3 | 0.2 | 97 | 93.6 | 102 | 90.9 | 0.3 | 101 | 81 | 51.5 | 94.1 | 32.9 | 8.6 | 9.8 | 7 | 10.7 | – | – | – | – | – | – | –
